Patent US20210139454A1, “FORMAMIDE COMPOUND, PREPARATION METHOD THEREFOR AND APPLICATION THEREOF” (SHENZHEN CHIPSCREEN BIOSCIENCES CO., LTD., priority 2018, published 2021)

Biological target: T1, recombinant human ASK1 (Homo sapiens, UniProt Q99683)
T1 construct: purchased Invitrogen PR7349B
T1 sequence (Q99683 1-1374): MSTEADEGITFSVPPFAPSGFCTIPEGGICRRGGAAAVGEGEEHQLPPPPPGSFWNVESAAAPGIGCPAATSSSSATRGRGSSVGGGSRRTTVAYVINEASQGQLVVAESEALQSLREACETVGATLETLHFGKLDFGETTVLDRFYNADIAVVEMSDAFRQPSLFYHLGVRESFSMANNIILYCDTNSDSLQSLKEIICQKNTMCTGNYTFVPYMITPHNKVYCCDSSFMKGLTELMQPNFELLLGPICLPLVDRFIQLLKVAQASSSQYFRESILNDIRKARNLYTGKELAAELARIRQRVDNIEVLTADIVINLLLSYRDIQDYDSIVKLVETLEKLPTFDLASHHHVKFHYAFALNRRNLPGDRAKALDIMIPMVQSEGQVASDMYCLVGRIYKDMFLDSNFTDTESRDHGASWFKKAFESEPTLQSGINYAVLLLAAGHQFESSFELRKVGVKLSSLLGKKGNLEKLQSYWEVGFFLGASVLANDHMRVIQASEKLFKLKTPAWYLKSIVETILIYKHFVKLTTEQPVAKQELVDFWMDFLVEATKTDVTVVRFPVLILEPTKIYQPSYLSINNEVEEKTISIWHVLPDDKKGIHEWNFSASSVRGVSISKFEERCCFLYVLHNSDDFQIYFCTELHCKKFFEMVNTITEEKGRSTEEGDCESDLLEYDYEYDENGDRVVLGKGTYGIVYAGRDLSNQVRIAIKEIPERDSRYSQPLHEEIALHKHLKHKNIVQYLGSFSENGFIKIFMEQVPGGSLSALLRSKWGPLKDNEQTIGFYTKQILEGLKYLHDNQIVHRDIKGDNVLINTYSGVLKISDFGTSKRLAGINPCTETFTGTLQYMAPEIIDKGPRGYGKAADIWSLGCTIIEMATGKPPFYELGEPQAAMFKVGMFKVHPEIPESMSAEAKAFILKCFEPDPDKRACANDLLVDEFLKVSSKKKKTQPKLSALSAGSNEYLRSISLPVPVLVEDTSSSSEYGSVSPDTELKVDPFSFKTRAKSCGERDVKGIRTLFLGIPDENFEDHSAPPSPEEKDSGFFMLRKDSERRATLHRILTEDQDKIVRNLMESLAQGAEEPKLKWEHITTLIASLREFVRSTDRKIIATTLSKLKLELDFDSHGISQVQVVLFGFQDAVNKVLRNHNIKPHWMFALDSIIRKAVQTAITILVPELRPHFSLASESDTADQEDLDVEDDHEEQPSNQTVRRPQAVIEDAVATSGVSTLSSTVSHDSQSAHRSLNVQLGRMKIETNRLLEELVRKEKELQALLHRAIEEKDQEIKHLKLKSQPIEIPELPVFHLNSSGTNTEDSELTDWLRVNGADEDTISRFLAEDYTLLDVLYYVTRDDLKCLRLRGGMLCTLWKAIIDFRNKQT
Experiment: ASK1 enzymatic inhibition in vitro by HTRF
Assay type: biochemical
Conditions: HTRF method, single concentration 100 nM; for inhibition at 0.1 µM: read-out: Inhibition Rate %
From the text: In this detection, homogeneous time resolved fluorescence (HTRF) was used to evaluate the inhibitory level of the compound on the enzyme activity of recombinant human ASK1 in an in vitro reaction system.
The basic principle of the detection of enzymatic activity in vitro: a specific substrate labeled with biotin at the end is phosphorylated under the action of a kinase, and the reaction product is mixed with the EU3+-Cryptate-labeled antibody that recognizes the phosphorylation site and XL665-labeled streptavidin. When the two fluorescent molecules are bound to the substrate at the same time, Eu will produce […] fluorescence under the stimulation of external excitation light (320 nm), and meanwhile, XL665 will be excited by energy transfer to produce 665 nm fluorescence. The phosphorylation of the substrate is evaluated by comparing the changes of fluorescence at two wavelengths (620 nm and 665 nm). […] The basic detection principle is known in the prior art (Cisbio, Nature Method 2006, June 23; DOI:10.1038/NMETH883).
Human recombinant ASK1 (MAP3K5) kinase, 2× kinase reaction buffer, and ATP (10 mM) were purchased from Invitrogen (Cat. No.: PR7349B), and HTRF detection kit, HTRF KinEASE STK discovery kit, was purchased from Cisbio (Cat. No.: 62ST0PEB).
The experimental process was carried out in accordance with the procedures required by the detection reagent manual (https://www.cisbio.com/sites/default/files/ressources/cisbio_ddpi_62ST0PEB.pdf). The details are as follows:
(1) Experimental preparation: the kinase reaction buffer (working solution) is prepared as required and used to dilute the test compound into different concentration gradients (the maximum concentration of the compound is 4 μM).
(2) 10 μL of the enzymatic reaction system (including 2.5 μL of test compound, 5 μL of kinase reaction buffer and 2.5 μL of ATP solution (provided in the kit)) is mixed well and reacted at room temperature for 1 h. The enzymatic reaction is carried out in a 96-well microplate.
(3) EU3+-Cryptate-labeled antibody and XL665-labeled streptavidin are diluted with reaction termination buffer in an appropriate ratio, and 5 μL of each of two diluted detection solutions is added to each reaction well and reacted at room temperature for 2 h.
(4) The reaction is set up with a control reaction at the same time, including a positive control without test compound and a negative control without ASK1 kinase. All detections are carried out in duplicate.
(5) After the reaction, a fluorescence detector (TecanSPARK 10M) is used to detect the fluorescence signal of each well, wherein, the excitation wavelength is 320 nm, and the detected emission wavelengths are 620 nm and 665 nm, respectively.
(6) The 665/620 ratio of each well is calculated respectively, and the 665/620 ratio of the negative control well is subtracted from that of the positive control well to get the basic level of phosphorylation of the substrate. The formula for calculating the enzymatic inhibition rate of the test compound: inhibition rate (%)=1-(ratio of detection wells-ratio of negative wells)/basic level of phosphorylation of the substrate. The phosphorylation inhibition rates are calculated for the test compounds with different concentration gradients, and then the 50% enzymatic inhibiting concentration (IC50) is calculated by using the IC50 calculator. The summary data of the representative compounds of the present invention are as follows (see Table 2).

Compound | inhibition at 0.1 µM | Inhibition Rate %
Cc1cc(F)c(C(=O)Nc2cccc(-c3nncn3C(C)C)n2)cc1NC(=O)C1CC1 [Compound I-1, 5-(cyclopropylformamido)-2-fluoro-4-methyl-N-(6-(4-isopropyl-4H-1,2,4-triazol-3-yl)pyridin-2-yl)benzamide] | 54% | –
Cc1cc(F)c(C(=O)Nc2cccc(-c3nncn3[C@@H](C)C(F)(F)F)n2)cc1NC(=O)C1CC1 [Compound I-3, (5)-5-(cyclopropylformamido)-2-fluoro-4-methyl-N-(6-(4-(1,1,1-trifluoropropyl-2-yl)-4H-1,2,4-triazol-3-yl)pyridin-2-yl)benzamide] | – | 51%
Cc1cc(F)c(C(=O)Nc2cccc(-c3nncn3CC(F)(F)F)n2)cc1NC(=O)C1CC1 [Compound I-4, 5-(cyclopropylformamido)-2-fluoro-4-methyl-N-(6-(4-(2,2,2-trifluoroethyl)-4H-1,2,4-triazol-3-yl)pyridin-2-yl)benzamide] | 32% | –
COC[C@@H](C)n1cnnc1-c1cccc(NC(=O)c2cc(NC(=O)C3CC3)c(C)cc2F)n1 [Compound I-6] | – | 13%
Cc1cc(F)c(C(=O)Nc2csc(-c3nncn3[C@@H](C)C(F)(F)F)n2)cc1NC(=O)C1CC1 [Compound I-8] | – | 24%
C[C@H](n1cnnc1-c1cccc(NC(=O)c2cc(NC(=O)C3CC3)c(Cl)cc2F)n1)C(F)(F)F [Compound I-9, (S)-4-chloro-5-(cyclopropylformamido)-2-fluoro-N-(6-(4-(1,1,1-trifluoropropyl-2-yl)-4H-1,2,4-triazol-3-yl)pyridin-2-yl)benzamide] | – | 33%
C[C@H](n1cnnc1-c1cccc(NC(=O)c2cc(NC(=O)C3CC3)ccn2)n1)C(F)(F)F [Compound I-10, (S)-4-(cyclopropylformamido)-N-(6-(4-(1,1,1-trifluoropropyl-2-yl)-4H-1,2,4-triazol-3-yl)pyridin-2-yl)pyridin-2-formamide] | – | 44%
C[C@H](n1cnnc1-c1cccc(NC(=O)c2cc(NC(=O)C3CC3)c(F)cn2)n1)C(F)(F)F [Compound I-11, (S)-4-(cyclopropylformamido)-5-fluoro-N-(6-(4-(1,1,1-trifluoropropyl-2-yl)-4H-1,2,4-triazol-3-yl)pyridin-2-yl)pyridin-2-formamide] | – | 27%
Cc1cc(F)c(C(=O)Nc2cccc(-c3nncn3C(C)C)n2)cc1NC(=O)C1CC1c1ccc(F)cc1 (stereo not drawn) [Compound I-13, 2-fluoro-5-(2-(4-fluorophenyl)cyclopropyl-1-formamido)-N-(6-(4-isopropyl-4H-1,2,4-triazol-3-yl)pyridin-2-yl)-4-methylbenzamide] | – | 18%
Cc1cc(F)c(C(=O)Nc2cccc(-c3nncn3C(C)C)n2)cc1NC(=O)C1CCC1 [Compound I-14, 5-(cyclobutylformamido)-2-fluoro-N-(6-(4-isopropyl-4H-1,2,4-triazol-3-yl)pyridin-2-yl)-4-methylbenzamide] | 42% | –
Cc1cc(F)c(C(=O)Nc2cccc(-c3nncn3C(C)C)n2)cc1NC(=O)C1(F)CC1 [Compound I-16, 2-fluoro-N-(6-(4-isopropyl-4H-1,2,4-triazol-3-yl)pyridin-2-yl)-4-methyl-5-(1-(fluoro)cyclopropyl-1-formamido)benzamide] | – | 21%
Cc1cc(F)c(C(=O)Nc2cccc(-c3nncn3C(C)C)n2)cc1NC(=O)[C@H]1C[C@H]1F [Compound I-17, 2-fluoro-5-((1R,2R)-2-fluorocyclopropyl-1-formamido)-N-(6-(4-isopropyl-4H-1,2,4-triazol-3-yl)pyridin-2-yl)-4-methylbenzamide] | – | 15%
Cc1cc(F)c(C(=O)Nc2cccc(-c3nncn3C(C)C)n2)cc1NC(=O)[C@H]1C[C@@H]1F [Compound I-18, 2-fluoro-5-((1R,2S)-2-fluorocyclopropyl-1-formamido)-N-(6-(4-isopropyl-4H-1,2,4-triazol-3-yl)pyridin-2-yl)-4-methylbenzamide] | – | 34%
Cc1cc(F)c(C(=O)Nc2cccc(-c3nncn3[C@@H](C)C(F)(F)F)n2)cc1NC(=O)C1CCCC1 [Compound I-19, (S)-5-(cyclopentylformamido)-2-fluoro-4-methyl-N-(6-(4-(1,1,1-trifluoropropyl-2-yl)-4H-1,2,4-triazol-3-yl)pyridin-2-yl)benzamide] | – | 52%
Cc1cc(F)c(C(=O)Nc2cccc(-c3nncn3[C@@H](C)C(F)(F)F)n2)cc1NC(=O)C1CCCCCC1 [Compound I-20, (S)-5-(cycloheptylformamido)-2-fluoro-4-methyl-N-(6-(4-(1,1,1-trifluoropropyl-2-yl)-4H-1,2,4-triazol-3-yl)pyridin-2-yl)benzamide] | – | 16%
